Data reported in patent US6914045B2, “Glycopeptide antibiotics” (Wyeth Holdings Corporation, priority 2001, dated 2005).

How the values were obtained:
[1] = tested on: Escherichia coli; test: in vitro antibacterial evaluation, MIC by broth dilution; format: cell-based; details: 18 hours at 35° C.
Summary of the method: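 Broth dilution MIC per NCCLS M7-A2 in Mueller-Hinton II medium, inoculum 5×10^5 CFU/mL, antibiotic range 64-0.06 μg/mL. MIC taken as lowest concentration inhibiting growth.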

[2] = tested on: Enterococcus sp.; test: as above; format: cell-based; details: broth dilution, 18 hours at 35° C.
Summary of the method: (§1)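 Broth dilution per NCCLS M7-A2 in Mueller-Hinton II medium, inoculum 5×10^5 CFU/mL, antibiotic range 64-0.06 μg/mL. MIC taken as lowest concentration inhibiting growth; Gram-positive panel includes recent clinical isolates resistant to methicillin, penicillin and/or vancomycin.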

[3] = tested on: Staphylococcus sp.; test: as above; format: cell-based
Summary of the method: as §1

[4] = tested on: Staphylococcus aureus-SMITH (GC 4543); test: acute lethal infection in mice; format: in vivo; details: acute lethal infection, female CD-1 mice, intraperitoneal challenge, intravenous 30 min. after infection, 7 day survival
Protocol: Methods for in Vivo Antibacterial Evaluation
The therapeutic effects of glycopeptide antibiotics of Formula I are determined against acute lethal infections with S. aureus (strain Smith), a penicillin resistant strain of S. pneumoniae (strain GC 1894), and a vancomycin resistant strain of E. fecalis (strain GC 6189 and GC 2246). Female mice, CD-1 (Charles River Laboratories), 20+/−2 gm, are challenged by intraperitoneal injection of sufficient bacteria (suspended in /trypticase Soy Broth or hog gastric mucin) to kill non-treated controls within 24-48 hr. Antibacterial agents, contained in 0.2 mL of saline or 5% dextrose solution, are administered intravenously 30 min. after infection. Five mice are treated at each dose level. The 7 day survival ratios from 3 separate tests are pooled for calculation of median effective dose (ED50).

[5] = tested on: Streptococcus sp.; test: in vitro antibacterial evaluation, MIC by broth dilution; format: cell-based; details: broth dilution, 18 hours at 35° C.
Summary of the method: as §1

[6] = anatomic pathology (histopathology of heart and kidney) in mice; format: in vivo; details: CD-1 mice, 20 mg/kg intravenously daily for 9 days, necropsy day 10, microscopic histopathology
Protocol: Samples of tissues from necropsied mice were formalin-fixed, paraffin-embedded, sectioned, stained with hematoxylin and eosin, and examined microscopically. Histopathologic findings were recorded. These findings were subjectively graded on a scale corresponding to slight, mild, moderate, marked and severe as compared to untreated controls.

[7] = Enterococcus faecalis (ATCC 29212)
[8] = Enterococcus faecalis (GC 4552)
[9] = broth dilution, 18 hours at 35° C.
[10] = strain ATCC 29213; broth dilution, 18 hours at 35° C.
[11] = strain GC 1131; broth dilution, 18 hours at 35° C.
[12] = strain GC 4535; broth dilution, 18 hours at 35° C.
[13] = strain GC 4536; broth dilution, 18 hours at 35° C.
[14] = strain GC 4547; broth dilution, 18 hours at 35° C.

CCCCCC(=O)OCC1OC(OC2C(CO)OC(Oc3ccc(CC4NC(=O)C(C(C)c5ccccc5)NC(=O)CNC(=O)C(CO)NC(=O)C(C(O)C5CNC(=N)N5C5OC(CO)C(O)C(O)C5O)NC(=O)C(C(O)C5CNC(=N)N5)NC4=O)cc3)C(O)C2O)C(O)C(O)C1O (stereo not drawn) [Example 95b, Cyclo[glycyl-β-methylphenylalanyl-O-[4-O-(6-O-hexanoylhexopyranosyl)hexopyranosyl]-tyrosyl-3-(2-iminoimidazolidin-4-yl)seryl-3-(3-hexopyranosyl-2-iminoimidazolidin-4-yl)-serylseryl]]
64 µg/mL: MIC Escherichia coli (GC 4559) [1]
4 mg/kg: median effective dose (ED50), Staphylococcus aureus-SMITH (GC 4543) [4]
<0.5 µg/mL: MIC Escherichia coli (GC 4560) [1]
4 µg/mL: MIC Enterococcus faecalis (ATCC 29212) [2, 7] | MIC Enterococcus faecalis (ATCC 29212) [2]
2 µg/mL: MIC Coagulase Negative Staphylococcus (GC 4537) [3, 9] | MIC Staphylococcus aureus (GC 4535) [3, 12] | MIC Coagulase Negative Staphylococcus (GC 4537) ([3]; strain GC 4537; broth dilution, 18 hours at 35° C.)
8 µg/mL: MIC Enterococcus faecalis (GC 4552) [2, 8] | MIC Enterococcus faecalis (GC 2242) [2] | MIC Enterococcus faecalis (GC 4552) [2] | MIC Enterococcus faecalis (GC 2242) ([2]; strain GC 2242)
1 µg/mL: MIC Coagulase Negative Staphylococcus (GC 4538) [3, 9] | MIC Coagulase Negative Staphylococcus (GC 4547) [3, 9] | MIC Staphylococcus aureus (ATCC 29213) [3, 10] | MIC Staphylococcus aureus (GC 1131) [3, 11] | MIC Staphylococcus aureus-SMITH (GC 4536) [3, 13] | MIC Coagulase Negative Staphylococcus (GC 4538) ([3]; strain GC 4538; broth dilution, 18 hours at 35° C.) | MIC Coagulase Negative Staphylococcus (GC 4547) [3, 14]

CCCCCCC(=O)OCC1OC(OC2C(CO)OC(Oc3ccc(CC4NC(=O)C(C(C)c5ccccc5)NC(=O)CNC(=O)C(CO)NC(=O)C(C(O)C5CNC(=N)N5C5OC(CO)C(O)C(O)C5O)NC(=O)C(C(O)C5CNC(=N)N5)NC4=O)cc3)C(O)C2O)C(O)C(O)C1O (stereo not drawn) [Example 97b, Cyclo[glycyl-β-methylphenylalanyl-O-[4-O-(6-O-heptanoylhexopyranosyl)hexopyranosyl]-tyrosyl-3-(2-iminoimidazolidin-4-yl)seryl-3-(3-hexopyranosyl-2-iminoimidazolidin-4-yl)-serylseryl]]
2 µg/mL: MIC Enterococcus faecalis (GC 2242) ([2]; Enterococcus faecalis (GC 2242)) | MIC Enterococcus faecalis (GC 2242) [2]
1 µg/mL: MIC Escherichia coli (GC 4560) [1] | MIC Coagulase Negative Staphylococcus (GC 4537) [3, 9] | MIC Coagulase Negative Staphylococcus (GC 4538) [3, 9] | MIC Coagulase Negative Staphylococcus (GC 4547) [3, 9] | MIC Coagulase Negative Staphylococcus (GC 4537) ([3]; broth dilution, 18 hours at 35° C.; strain GC 4537) | MIC Coagulase Negative Staphylococcus (GC 4538) ([3]; broth dilution, 18 hours at 35° C.; strain GC 4538) | MIC Coagulase Negative Staphylococcus (GC 4547) ([3]; broth dilution, 18 hours at 35° C.; strain GC 4547) | MIC Staphylococcus aureus (ATCC 29213) [3, 10] | MIC Staphylococcus aureus (GC 1131) [3, 11] | MIC Staphylococcus aureus (GC 4535) [3, 12]
32 µg/mL: MIC Escherichia coli (GC 4559) [1]
4 µg/mL: MIC Enterococcus faecalis (ATCC 29212) [2, 7] | MIC Enterococcus faecalis (GC 4552) [2, 8] | MIC Enterococcus faecalis (ATCC 29212) [2] | MIC Enterococcus faecalis (GC 4552) [2]
8 mg/kg: median effective dose (ED50), Staphylococcus aureus-SMITH (GC 4543) [4]
0.5 µg/mL: MIC Staphylococcus aureus-SMITH (GC 4536) [3, 13]

CN=C1N(C)CC(CC2NC(=O)C(Cc3ccc(OC4OC(CO)C(OC5OC(CO)C(O)C(O)C5O)C(O)C4O)cc3)NC(=O)C(C(C)c3ccccc3)NC(=O)CNC(=O)C(CO)NC(=O)C(CC3CN(C)C(=NC)N3C3OC(CO)C(O)C(O)C3O)NC2=O)N1C (stereo not drawn) [Example 74, Cyclo[3-[1,3-dimethyl-2-(methylimino)imidazolidin-4-yl]alanyl-3-[3-hexopyranosyl-1-methyl-2-(methylimino)imidazolidin-4-yl]alanylserylglycyl-β-methylphenylalanyl-O-(4-O-hexopyranosylhexopyranosyl)tyrosyl]]
0: Anatomical Pathology (Day 10), Heart [6] | Anatomical Pathology (Day 10), Kidney [6]
128 µg/mL: MIC Enterococcus avium (GC 4558) ([2]; Enterococcus avium (GC 4558)) | MIC Enterococcus faecium (GC 4557) ([2]; Enterococcus faecium (GC 4557)) | MIC Enterococcus avium (GC 4558) [2] | MIC Enterococcus faecium (GC 4557) [2] | MIC Streptococcus agalactiae (GC 4564) [5] | MIC Streptococcus pneumoniae (GC 1894) [5] | MIC Streptococcus pneumoniae (GC 1894) ([5]; strain GC 1894) | MIC Streptococcus agalactiae (GC 4564) ([5]; strain GC 4564)
>128 µg/mL: MIC Escherichia coli (ATCC 25922) [1] | MIC Escherichia coli (GC 4559) [1] | MIC Escherichia coli (GC 4560) [1] | MIC Enterococcus faecalis (ATCC 29212) [2, 7] | MIC Enterococcus faecalis (GC 4552) [2, 8] | MIC Enterococcus faecalis (GC 4553) ([2]; Enterococcus faecalis (GC 4553)) | MIC Enterococcus faecalis (GC 4554) ([2]; Enterococcus faecalis (GC 4554)) | MIC Enterococcus faecalis (GC 6189) ([2]; Enterococcus faecalis (GC 6189)) | MIC Enterococcus faecium (GC 2243) ([2]; Enterococcus faecium (GC 2243)) | MIC Enterococcus faecium (GC 4556) ([2]; Enterococcus faecium (GC 4556)) | MIC Enterococcus faecalis (ATCC 29212) [2] | MIC Enterococcus faecalis (GC 2242) [2] | MIC Enterococcus faecalis (GC 2691) [2] | MIC Enterococcus faecalis (GC 3059) [2] | MIC Enterococcus faecalis (GC 4552) [2] | MIC Enterococcus faecalis (GC 4553) [2] | MIC Enterococcus faecalis (GC 4554) [2] | MIC Enterococcus faecalis (GC 6189) [2] | MIC Enterococcus faecium (GC 2243) [2] | MIC Enterococcus faecium (GC 4556) [2] | MIC Enterococcus faecalis (GC 2242) ([2]; strain GC 2242) | MIC Enterococcus faecalis (GC 2691) ([2]; strain GC 2691) | MIC Enterococcus faecalis (GC 3059) ([2]; strain GC 3059) | MIC Staphylococcus aureus (ATCC 29213) [3, 10] | MIC Staphylococcus aureus (GC 1131) [3, 11] | MIC Staphylococcus aureus (GC 3051) ([3]; strain GC 3051; broth dilution, 18 hours at 35° C.) | MIC Staphylococcus aureus (GC 3053) ([3]; strain GC 3053; broth dilution, 18 hours at 35° C.) | MIC Staphylococcus aureus (GC 4541) ([3]; strain GC 4541; broth dilution, 18 hours at 35° C.) | MIC Staphylococcus aureus (GC 4542) ([3]; strain GC 4542; broth dilution, 18 hours at 35° C.) | MIC Staphylococcus aureus-SMITH (GC 4543) ([3]; strain GC 4543; broth dilution, 18 hours at 35° C.) | MIC Staphylococcus aureus (GC 4544) ([3]; strain GC 4544; broth dilution, 18 hours at 35° C.) | MIC Staphylococcus aureus (GC 4545) ([3]; strain GC 4545; broth dilution, 18 hours at 35° C.) | MIC Staphylococcus haemolyticus (GC 4546) ([3]; strain GC 4546; broth dilution, 18 hours at 35° C.) | MIC Coagulase Negative Staphylococcus (GC 4547) [3, 14] | MIC Coagulase Negative Staphylococcus (GC 4548) ([3]; strain GC 4548; broth dilution, 18 hours at 35° C.) | MIC Coagulase Negative Staphylococcus (GC 4549) ([3]; strain GC 4549; broth dilution, 18 hours at 35° C.) | MIC Coagulase Negative Staphylococcus (GC 4551) ([3]; strain GC 4551; broth dilution, 18 hours at 35° C.) | MIC Coagulase Negative Staphylococcus (GC 6257) ([3]; strain GC 6257; broth dilution, 18 hours at 35° C.) | MIC Streptococcus pneumoniae (ATCC 6301) [5] | MIC Streptococcus pneumoniae (GC 4565) [5] | MIC Streptococcus pyogenes (GC 4563) [5] | MIC Streptococcus pneumoniae (ATCC 6301) ([5]; strain ATCC 6301) | MIC Streptococcus pyogenes (GC 4563) ([5]; strain GC 4563) | MIC Streptococcus pneumoniae (GC 4565) ([5]; strain GC 4565)
